We go through 26 molecules from US20050222173A1, “Triazolopyrimidines” (priority 2002, published 2005).

The subject of one data set is Podosphaera leucotricha. Briefly: Podosphaera test (apple)/protective. The conditions noted are these: Podosphaera leucotricha, 240 h, protective, application rate 100 g/ha, evaluation 10 days after inoculation, read-out: Efficacy in %. Format: in vivo. The method, then: Podosphaera Test (Apple)/Protective [table] […] To test for protective activity, young plants are sprayed with the preparation of active compound at the stated application rate. After the spray coating has dried on, the plants are inoculated with an aqueous spore suspension of the apple mildew pathogen Podosphaera leucotricha. The plants are then placed in a greenhouse at about 23° C. and a relative atmospheric humidity of about 70%.
On to `COc1nc2nc(Cl)c(-c3c(F)cc(F)cc3OC)c(NC(C)C(F)(F)F)n2n1` (centres unmarked) [drawing 49], for which the pest or weed control at 100 g/ha stood at 83%.

The next data set deals with Venturia inaequalis. The data set can be described thus: Venturia test (apple)/protective. In kind it is in vivo. The conditions noted are these: Venturia inaequalis, 240 h, protective, application rate 100 g/ha, evaluation 10 days after inoculation, read-out: Efficacy in %. The method, then:
Venturia Test (Apple)/Protective [table] To produce a suitable preparation of active compound, 1 part by weight of active compound is mixed with the stated amounts of solvent and emulsifier, and the concentrate is diluted with water to the desired concentration. To test for protective activity, young plants are sprayed with the preparation of active compound at the stated application rate. […] The plants are then placed in a greenhouse at about 21° C. and a relative atmospheric humidity of about […].
Consider `C[C@@H](Nc1c(-c2ccccc2Cl)c(Cl)nc2nc(Cl)nn12)C(F)(F)F` [drawing 50], for which the pest or weed control at 100 g/ha came out at 100%. Still for that read-out and setting: for `C[C@@H](Nc1c(-c2c(F)cc(F)cc2F)c(Cl)nc2nc(Cl)nn12)C(F)(F)F` [drawing 51] the value was 100%; for `CC(C)Nc1c(-c2ccccc2Cl)c(Cl)nc2nc(Br)nn12` [drawing 52], 98%; for `CCC(C)CNc1c(-c2c(F)cc(F)cc2F)c(Cl)nc2nc(Cl)nn12` (centres unmarked) [drawing 53], 83%. Still for that read-out and setting: for `CCC(C)CNc1c(-c2c(F)cc(F)cc2F)c(Cl)nc2nc(Br)nn12` (centres unmarked) [drawing 54] the value was 80%; for `Clc1nc2nc(Cl)c(-c3ccccc3Cl)c(NCC3CC3)n2n1` [drawing 55], 96%.

For `C[C@H](Nc1c(-c2c(F)cc(F)cc2F)c(Cl)nc2nc(Br)nn12)C(F)(F)F` [drawing 56], the pest or weed control at 100 g/ha stood at 99%.

`CC1CCCN(c2c(-c3c(F)cc(F)cc3F)c(Cl)nc3nc(Cl)nn23)C1` (centres unmarked) [drawing 57]: the pest or weed control at 100 g/ha turned out to be 96%.

On to `CC(C)CNc1c(-c2ccc(F)cc2F)c(Cl)nc2nc(Cl)nn12` [drawing 58], for which the pest or weed control at 100 g/ha stood at 85%. The same measure, in the same setting: under `C[C@H](Nc1c(-c2c(F)cccc2Cl)c(Cl)nc2nc(Cl)nn12)C(F)(F)F` [drawing 59] stands 100%; under `Fc1ccc(-c2c(Cl)nc3nc(Cl)nn3c2N[C@@H](Cl)C(F)(F)F)c(F)c1` [drawing 60], 100%; under `Fc1cccc(Cl)c1-c1c(Cl)nc2nc(Cl)nn2c1N1CCCC1` [drawing 61], 85%. Still for that read-out and setting: for `C=CCN(CC)c1c(-c2c(F)cccc2Cl)c(Cl)nc2nc(Cl)nn12` [drawing 62] the value was 96%; for `CC(C)CNc1c(-c2c(F)cccc2Cl)c(Cl)nc2nc(Cl)nn12` [drawing 63], 91%; for `Fc1cccc(Cl)c1-c1c(Cl)nc2nc(Cl)nn2c1NCC1CC1` [drawing 64], 99%. `COCCN(C)c1c(-c2c(F)cccc2Cl)c(Cl)nc2nc(Cl)nn12` [drawing 65]: the pest or weed control at 100 g/ha worked out at 96%. As for `COc1nc2nc(Cl)c(-c3c(F)cc(F)cc3OC)c(NC(C)C(F)(F)F)n2n1` (centres unmarked) [drawing 67], the pest or weed control at 100 g/ha was 99%.

Still in this data set, the particulars now being: protective, application rate 100 g/ha, evaluation 10 days after inoculation.
In turn, `C=C(C)CN(C)c1c(-c2c(F)cccc2Cl)c(Cl)nc2nc(Cl)nn12` [drawing 66] displayed an Efficacy in % of 84%.

In another data set the test system is Pyricularia oryzae.
Experiment: not given
In kind it is in vivo. The conditions noted are these: rice, protective, application rate 250 g/ha, evaluation 6 days after inoculation.
For `C[C@H](Nc1c(-c2ccccc2Cl)c(Cl)nc2nc(Cl)nn12)C(F)(F)F`, the Efficacy in % is reported as 100%. Take `C[C@H](Nc1c(-c2c(F)cccc2Cl)c(Cl)nc2nc(Cl)nn12)C(F)(F)F` [drawing 69]: the Efficacy in % came out at 100%.

Tested on in a further data set: not listed separately
Briefly: physchem.
Details: not given
Consider `CC(C)Nc1c(-c2ccccc2Cl)c(Cl)nc2nc(Cl)nn12` [Example 1, N-[2,5-dichloro-6-(2-chlorophenyl)[1,2,4]triazolo[1,5-a]pyrimidin-7-yl]-N-isopropylamine], for which the chromatographic logP (in general, lipophilicity estimated from chromatographic retention) came to 3.43. Same read-out and setting: for `Clc1nc2nc(Cl)c(-c3ccccc3Cl)c(Cl)n2n1` [Example 177, 2,5,7-trichloro-6-(2-chlorophenyl)[1,2,4]triazolo[1,5-a]pyrimidine] the value was 3.37; for `Clc1ccccc1-c1c(Cl)nc2nc(Br)nn2c1Cl` [Example 178, 2-Bromo-5,7-dichloro-6-(2-chlorophenyl)[1,2,4]triazolo[1,5-a]pyrimidine], 3.39. In turn, `Fc1cc(F)c(-c2c(Cl)nc3nc(Cl)nn3c2Cl)c(F)c1` [Example 179, 2,5,7-Trichloro-6-(2,4,6-trifluorophenyl)[1,2,4]triazolo[1,5-a]pyrimidine] yielded a chromatographic logP of 3.28. Molecule `Fc1cc(F)c(-c2c(Cl)nc3nc(Br)nn3c2Cl)c(F)c1` [Example 180, 2-Bromo-5,7-dichloro-6-(2,4,6-trifluorophenyl)[1,2,4]triazolo[1,5-a]pyrimidine] came in with a chromatographic logP of 3.27.
